# Results from patent US11603382B2, “Diastereoselective synthesis of phosphate derivatives” (NuCana plc, priority 2015, dated 2023).
# Assays:
# [1] = solubility in mixtures of polar organic solvents with water; type: physicochemical
# Source text: It has recently been discovered that the (S)-epimer of gemcitabine-[phenyl-benzoxy-L-alaninyl)]-phosphate has sufficient solubility in mixtures of a number of polar organic solvents with water to render it suitable for formulation and administration as a therapeutic agent. […] In certain solvent mixtures the difference in solubility between the (S)-epimer and the (R)-epimer is over 100 fold. It is expected therefore that more clinically effective, practical and patient friendly administration methods can be developed using the (S)-epimer than can be developed using the (R)-epimer or using the mixture. It is thus desirable to be able to provide gemcitabine-[phenyl-benzoxy-L-alaninyl)]-(S)-phosphate in substantially diastereoisomerically pure form.
# [2] = tested on: isolated human hepatic cells; test: half-life on incubation with isolated human hepatic cells; type: in vitro ADME
# Source text: The longer half-life associated with (R)-isomer indicates a lower intrinsic clearance and should result in a different pharmacokinetic and pharmacodynamic profile to the (S)-isomer which may offer some benefits.
# [3] = solubility in water; type: physicochemical; conditions: regardless of salt content or pH
# Procedure: NUC-1031 is extremely lipophillic and thus poorly water soluble (by calculation: <0.1 mg/mL), and the ionisable moieties have calculated pKas which lie out-side the pH range suitable for parenteral administration. […] It also has implications for the development of efficient manufacturing processes which will allow NUC-1031 to be produced cost effectively.
structure (smiles),measurement,setting,value
C[C@H](N[P@@](=O)(OC[C@H]1O[C@@H](n2ccc(N)nc2=O)C(F)(F)C1O)Oc1ccccc1)C(=O)OCc1ccccc1 (stereo partly drawn) [(R)-epimer],solubility relative to the (S)-epimer,[1]; mixtures of polar organic solvents with water,considerably lower
same,half-life relative to that of the (S)-epimer,[2],four times
C[C@H](N[P@](=O)(OC[C@H]1O[C@@H](n2ccc(N)nc2=O)C(F)(F)C1O)Oc1ccccc1)C(=O)OCc1ccccc1 (stereo partly drawn) [(S)-epimer],difference in solubility between the (S)-epimer and the (R)-epimer,"[1]; in certain solvent mixtures (polar organic solvents with water), (S)-epimer over (R)-epimer",over 100 fold
"C[C@H](NP(=O)(OC[C@H]1O[C@@H](n2ccc(N)nc2=O)C(F)(F)C1O)Oc1ccccc1)C(=O)OCc1ccccc1 (stereo partly drawn) [NUC-1031, 2′-deoxy-2′,2′-difluoro-D-cytidine-5′-O-[phenyl(benzoxy-L-alaninyl)] phosphate]",solubility in water,[3],essentially insoluble in water
